We go through 1 compound from paper PMC4166525 (Organic letters, 2013).

The target of this test is T1, EgtB (Mycolicibacterium smegmatis, UniProt A0R5N0).
T1 sequence (A0R5N0 1-428): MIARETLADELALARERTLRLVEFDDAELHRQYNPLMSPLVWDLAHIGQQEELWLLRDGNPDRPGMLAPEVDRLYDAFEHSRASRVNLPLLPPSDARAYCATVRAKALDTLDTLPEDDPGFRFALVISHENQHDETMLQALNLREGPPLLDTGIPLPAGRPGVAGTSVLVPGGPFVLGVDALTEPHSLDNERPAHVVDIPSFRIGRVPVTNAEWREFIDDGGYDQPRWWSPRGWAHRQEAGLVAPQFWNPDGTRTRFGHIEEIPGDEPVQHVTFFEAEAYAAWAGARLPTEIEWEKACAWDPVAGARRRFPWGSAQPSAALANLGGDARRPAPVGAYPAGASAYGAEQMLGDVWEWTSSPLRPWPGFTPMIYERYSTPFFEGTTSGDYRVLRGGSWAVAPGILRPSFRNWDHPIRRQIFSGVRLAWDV
In words: 1H-NMR assay of product […]. Format: biochemical. The conditions noted are these: co-substrate γ-Glu-Cys.

On to `C[N+](C)(C)[C@@H](Cc1cnc[nH]1)C(=O)[O-]` [compound 2, hercynine], for which the “1H-NMR assay of product 3” value was “Native EgtB reaction in ergothioneine biosynthesis”.
